Measured values published in patent US20180193273A1, “PHARMACEUTICAL COMPOSITION COMPRISING AMLODIPINE AND DEXTROMETHORPHAN” (TSH BIOPHARM CORPORATION LTD., priority 2015, published 2018).

What was measured:
[1] = Different excipients: potency and impurity of vial samples A1 to A25 after 60° C./75% RH for 2 weeks (HPLC); format: physicochemical; conditions: glass vial sample
[2] = Compatibility study: drug potency and total impurity test of vial powder mixes after storage at 60° C./75% RH for 2 weeks (HPLC); format: physicochemical; conditions: glass vial powder mix

SMILES | Total impurity (%): NMT 1.00% [1] | % Potency (Amlodipine besylate) [2] | Total impurity [2]
CCOC(=O)C1=C(COCCN)NC(C)=C(C(=O)OC)C1c1ccccc1Cl (stereo not drawn) [Sample A1, Amlodipine besylate] | 0.02% | – | –
CCOC(=O)C1=C(COCCN)NC(C)=C(C(=O)OC)C1c1ccccc1Cl (stereo not drawn) [Table 1, Amlodipine besylate] | – | 100.2% | 0.02
